Measured values reported in US5496849A, “Sulfonic acid derivative and its pharmaceutical application” (Toray Industries, Inc., priority 1992, dated 1996).

Columns and labels:
[1] = test system: vasoconstriction of rat thoracic aorta induced by U-46619; experiment: Vasoconstriction inhibitory action (U-46619-induced constriction of thoracic aorta spiral specimens); parameters: species or system long Evans rats; details: 10 min, pH 7.4, minimum concentration at which inhibition rate was 50% or more, 10 ng/ml U-46619, drug applied 10 minutes, 37° C., read-out: Vasoconstriction Inhibitory Action MIC
Method: Male and female long Evans rats having body weights of 150-200 g were used in this example. After sacrificing the animals by decapitation, the thoracic aorta was removed, and the outer membrane was peeled off to obtain I2 spiral specimens roughly 2 cm in length. Blood vessel specimens were warmed to 37° C. and preserved in a Magnus tube containing 10 ml of a nutrient solution aerated with 95% oxygen+5% carbon dioxide gas. The nutrient solution contained 118.3 mmol of NaCl, 4.7 mmol of KCl, […] of CaCl, 1.2 mmol of MgSO4, 1.2 mmol of KH2 PO4, 25 mmol of NaCHO3, 11.1 mmol of D-glucose, 0.03 mmol of EDTA along with 1 μg/ml each of atropin, phentolamine, mepiramine, cyproheptadine, propranolol and indometacin, and was adjusted to a pH of 7.4. Vasoconstriction was measured using an isometric transducer (Harward UF-1 Transducer and Sekonic SS-250F Graph recorder). An equilibration time of 3 hours was provided after the blood vessels were installed on the Magnus device, and fresh nutrient solution was replaced every 30 minutes during that time. […] of U-46619, having TXA2 action (to reach roughly 75% of maximum constriction), was applied for 30 minutes to constrict the vessels. The maximum stable constriction during this time was taken to be the control constriction (C1). Next, the blood vessels were washed several times with nutrient solution to remove the drug. After allowing a recovery period of 30 minutes, the test drugs were applied at various concentrations for 10 minutes followed by again constricting the vessels by applying 10 ng/ml of U-46619 for 30 minutes. The maximum stable constriction during this time was taken to be the constriction of the test drugs (C2). The inhibition rates of vasoconstriction induced by the drugs and U-46619 were determined according to the following formula, and the minimum concentration at which the inhibition rate was 50% or more was determined as the minimum inhibitory concentration (MIC).
((C1-C2)/C1)×100=Inhibition rate (%)

[2] = test system: platelet aggregation induced by U-46619 in human platelet-rich plasma (PRP); experiment: Platelet aggregation inhibitory action (U-46619-induced, human platelet-rich plasma); format: cell-based; details: compounds added 1 minute before U-46619, turbidity
Method: Human whole blood drawn from the median cubital vein was centrifuged for 10 minutes at 800 rpm, and the upper portion was collected as platelet-rich plasma (PRP). […] The size of the aggregates were measured with a platelet aggregate measuring instrument (Hematracer 1, Nikko Bioscience) as the change in turbidity. The compounds were added 1 minute before addition of U-46619, and the concentration which inhibits aggregation by 50% was calculated as the IC50 value.

[3] = target: T1, Thromboxane A2 Receptor (Oryctolagus cuniculus, UniProt Q6WQI8); experiment: Receptor binding experiment: Thromboxane A2 Receptor Binding Test ([3H]SQ29548, washed platelets); parameters: species or system New Zealand White rabbits; details: rabbit washed platelets; [3H]SQ29548 3 nM; 60 minutes at 25° C.; read-out: Binding Inhibitory Action IC50 (converted)
T1 sequence (Q6WQI8 1-233): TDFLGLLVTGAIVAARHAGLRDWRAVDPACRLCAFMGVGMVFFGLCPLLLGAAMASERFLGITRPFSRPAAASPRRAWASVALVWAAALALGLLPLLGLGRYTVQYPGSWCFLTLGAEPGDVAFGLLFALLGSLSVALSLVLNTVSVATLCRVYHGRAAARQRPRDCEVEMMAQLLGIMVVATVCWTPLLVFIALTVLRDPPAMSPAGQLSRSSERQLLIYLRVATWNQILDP
Method: Whole blood from New Zealand White rabbits was collected into a container containing ACD solution (1.175 g of sodium citrate, 0.685 g of citric acid, and 1 g of dextrose dissolved in 50 ml of distilled water) followed by centrifuging at room temperature for 10 minutes at 180 ×g to obtain platelet-rich plasma. Moreover, this platelet-rich plasma was further centrifuged at room temperature and 2800 ×g to result in sedimentation of the platelets. The platelets were resuspended in 50 mM Tris hydrochloric acid buffer solution (pH 7.2, containing […]) and again centrifuged at 4° C. for 15 minutes at 2800 ×g. This procedure was repeated twice to prepare the washed platelets, and adjusted to a final concentration of 10 mg/ml (wet weight). Tritium-labelled SQ29548 ([3H]SQ29548) was used for the TXA2 ligand. In an antagonism experiment, 20 μl of [3H]SQ29548 at a final concentration of 3 nM were added to 500 μl of a 10 mg/ml platelet suspension, together with adding 2.6 μl of the test drug dissolved in a suitable buffer. After incubating for 60 minutes at 25° C., the mixture was filtered over a glass filter using the Celherbster method, the filter was washed with 50 mM Tris hydrochloric acid buffer solution (3 ×4 ml), and radioactivity was measured with a scintillation counter to determine the amount of [3H]SQ29548 bound to the platelets. In addition, in a saturation test, 20 μl of [3H]SQ29548 were added to a final concentration of 0.1-50 nM followed by the addition of 2.6 μl of BM13505 at a final concentration of 1 μM in order to examine non-specific binding and carry out a binding experiment. The concentration of the test drug which inhibited binding of [3H]SQ29548 by 50% was determined as the IC50 value.

O=C(O)c1cccc2c1O[C@H]1C[C@@H](O)[C@H](NS(=O)(=O)c3ccccc3)[C@@H]21 (racemic) [(39), (1RS, 2RS, 3aSR, 8bRS)-1-benzenesulfonamido-2-hydroxy-2,3,3a,8b-tetrahydro-1H-cyclopenta[b]benzofuran-5-carboxylic acid]
minimal effective concentration [1]: 0.25 µg/mL

O=C(O)Cc1cccc2c1O[C@H]1C[C@@H](O)[C@H](NS(=O)(=O)c3ccccc3)[C@@H]21 (racemic) [(41), (1RS, 2RS, 3aSR, 8bRS)-1-benzenesulfonamido-2-hydroxy-2,3,3a,8b-tetrahydro-1H-cyclopenta[b]benzofuran-5-acetic acid]
minimal effective concentration [1]: 0.25 µg/mL | IC50 [2]: 1.7 µM | IC50 [3]: 2.08 µM

O=C(O)CCc1cccc2c1O[C@H]1C[C@@H](O)[C@H](NS(=O)(=O)c3ccccc3)[C@@H]21 (racemic) [(43), (1RS, 2RS, 3aSR, 8bRS)-1-benzenesulfonamido-2-hydroxy-2,3,3a,8b-tetrahydro-1H-cyclopenta[b]benzofuran-5-propionic acid]
minimal effective concentration [1]: 0.3 µg/mL | IC50 [2]: 0.51 µM | IC50 [3]: 0.322 µM

COC(=O)COc1cccc2c1O[C@H]1C[C@@H](O)[C@H](NS(=O)(=O)c3ccccc3)[C@@H]21 (racemic) [(46), (1RS, 2RS, 3aSR, 8bRS)-1-benzenesulfonamido-2-hydroxy-2,3,3a,8b-tetrahydro-1H-cyclopenta[b]benzofuran-5-yloxyacetic acid methyl ester]
minimal effective concentration [1]: 0.03 µg/mL | IC50 [2]: 0.068 µM | IC50 [3]: 0.0231 µM

O=C(O)COc1cccc2c1O[C@H]1C[C@@H](O)[C@H](NS(=O)(=O)c3ccccc3)[C@@H]21 (racemic) [(47), (1RS, 2RS, 3aSR, 8bRS)-1-benzenesulfonamido-2-hydroxy-2,3,3a,8b-tetrahydro-1H-cyclopenta[b]benzofuran-5-yloxyacetic acid]
minimal effective concentration [1]: 0.025 µg/mL | IC50 [2]: 0.018 µM | IC50 [3]: 0.0074 µM

COc1ccc(S(=O)(=O)N[C@@H]2[C@H]3c4cccc(OCC(=O)O)c4O[C@H]3C[C@H]2O)cc1 (racemic) [(51), (1RS, 2RS, 3aSR, 8bRS)-1-(p-methoxybenzenesulfonamido)-2-hydroxy-2,3,3a,8b-tetrahydro-1H-cyclopenta[b]benzofuran-5-yloxyacetic acid]
minimal effective concentration [1]: 0.1 µg/mL | IC50 [2]: 0.068 µM | IC50 [3]: 0.0276 µM

O=C(O)COc1cccc2c1O[C@H]1C[C@@H](O)[C@H](NS(=O)(=O)c3ccc(F)cc3)[C@@H]21 (racemic) [(53), (1RS, 2RS, 3aSR, 8bRS)-1-(p-fluorobenzenesulfonamido)-2-hydroxy-2,3,3a,8b-tetrahydro-1H-cyclopenta[b]benzofuran-5-yloxyacetic acid]
minimal effective concentration [1]: 0.05 µg/mL | IC50 [2]: 0.033 µM | IC50 [3]: 0.021 µM

O=C(O)COc1cccc2c1O[C@H]1C[C@@H](O)[C@H](NS(=O)(=O)c3ccc(Cl)cc3)[C@@H]21 (racemic) [(55), (1RS, 2RS, 3aSR, 8bRS)-1-(p-chlorobenzenesulfonamido)-2-hydroxy-2,3,3a,8b-tetrahydro-1H-cyclopenta[b]benzofuran-5-yloxy acetic acid]
minimal effective concentration [1]: 0.1 µg/mL | IC50 [2]: 0.017 µM | IC50 [3]: 0.00318 µM

O=C(O)COc1cccc2c1O[C@H]1C[C@@H](O)[C@H](NS(=O)(=O)c3cccc(Cl)c3)[C@@H]21 (racemic) [(57), (1RS, 2RS, 3aSR, 8bRS)-1-(m-chlorobenzenesulfonamido)-2-hydroxy-2,3,3a,8b-tetrahydro-1H-cyclopenta[b]benzofuran-5-yloxyacetic acid]
minimal effective concentration [1]: 0.01 µg/mL | IC50 [2]: 0.041 µM | IC50 [3]: 0.0227 µM

O=C(O)COc1cccc2c1O[C@H]1C[C@@H](O)[C@H](NS(=O)(=O)c3ccc(Br)cc3)[C@@H]21 (racemic) [(61), (1RS, 2RS, 3aSR, 8bRS)-1-(p-bromobenzenesulfonamido)-2-hydroxy-2,3,3a,8b-tetrahydro-1H-cyclopenta[b]benzofuran-5-yloxyacetic acid]
minimal effective concentration [1]: 0.03 µg/mL | IC50 [2]: 0.044 µM | IC50 [3]: 0.00206 µM

O=C(O)COc1cccc2c1O[C@H]1C[C@@H](O)[C@H](NS(=O)(=O)c3ccc(I)cc3)[C@@H]21 (racemic) [(63), (1RS, 2RS, 3aSR, 8bRS)-1-(p-iodobenzenesulfonamido)-2-hydroxy-2,3,3a,8b-tetrahydro-1H-cyclopenta[b]benzofuran-5-yloxyacetic acid]
minimal effective concentration [1]: 0.01 µg/mL | IC50 [2]: 0.058 µM | IC50 [3]: 0.0226 µM

O=C(O)COc1cccc2c1O[C@H]1C[C@@H](O)[C@H](NS(=O)(=O)c3ccc([N+](=O)[O-])cc3)[C@@H]21 (racemic) [(68), (1RS, 2RS, 3aSR, 8bRS)-1-(p-nitrobenzenesulfonamido)-2-hydroxy-2,3,3a,8b-tetrahydro-1H-cyclopenta[b]benzofuran-5-yloxyacetic acid]
minimal effective concentration [1]: 0.1 µg/mL | IC50 [2]: 0.14 µM | IC50 [3]: 0.91 µM

O=C(O)COc1cccc2c1O[C@H]1C[C@@H](O)[C@H](NS(=O)(=O)c3ccc(F)cc3F)[C@@H]21 (racemic) [(70), (1RS, 2RS, 3aSR, 8bRS)-1-(2,4-difluorobenzenesulfonamido)-2-hydroxy-2,3,3a,8b-tetrahydro-1H-cyclopenta[b]benzofuran-5-yloxyacetic acid]
minimal effective concentration [1]: 0.03 µg/mL | IC50 [2]: 0.029 µM | IC50 [3]: 0.0498 µM

O=C(O)COc1cccc2c1O[C@H]1C[C@@H](O)[C@H](NS(=O)(=O)c3ccc(Cl)c(Cl)c3)[C@@H]21 (racemic) [(72), (1RS, 2RS, 3aSR, 8bRS)-1-(3,4-dichlorobenzenesulfonamido)-2-hydroxy-2,3,3a,8b-tetrahydro-1H-cyclopenta[b]benzofuran-5-yloxyacetic acid]
minimal effective concentration [1]: 0.03 µg/mL | IC50 [2]: 0.12 µM | IC50 [3]: 0.0253 µM

O=C(O)COc1cccc2c1O[C@H]1CC[C@H](NS(=O)(=O)c3ccccc3)[C@@H]21 (racemic) [(90), (1SR, 3aSR, 8bRS)-1-benzenesulfonamido-2,3,3a,8b-tetrahydro-1H-cyclopenta[b]benzofuran-5-yloxyacetic acid]
minimal effective concentration [1]: 0.003 µg/mL | IC50 [2]: 0.099 µM | IC50 [3]: 0.00847 µM

CO[C@@H]1C[C@@H]2Oc3c(OCC(=O)O)cccc3[C@@H]2[C@H]1NS(=O)(=O)c1ccccc1 (racemic) [(92), (1RS, 2RS, 3aSR, 8bRS)-1-benzenesulfonamido-2-methoxy-2,3,3a,8b-tetrahydro-1H-cyclopenta[b]benzofuran-5-yloxyacetic acid]
minimal effective concentration [1]: 0.1 µg/mL | IC50 [2]: 0.1 µM | IC50 [3]: 0.0572 µM
